Assay results as given in BindingDB's records for doi:10.1021/jm100498u (Massachusetts General Hospital, 2010).

Target: T1, Gamma-aminobutyric acid receptor subunit alpha-1/beta-2/gamma-2 (Homo sapiens, UniProt P14867+P18507+P47870)
T1 sequence (P14867 whole entry): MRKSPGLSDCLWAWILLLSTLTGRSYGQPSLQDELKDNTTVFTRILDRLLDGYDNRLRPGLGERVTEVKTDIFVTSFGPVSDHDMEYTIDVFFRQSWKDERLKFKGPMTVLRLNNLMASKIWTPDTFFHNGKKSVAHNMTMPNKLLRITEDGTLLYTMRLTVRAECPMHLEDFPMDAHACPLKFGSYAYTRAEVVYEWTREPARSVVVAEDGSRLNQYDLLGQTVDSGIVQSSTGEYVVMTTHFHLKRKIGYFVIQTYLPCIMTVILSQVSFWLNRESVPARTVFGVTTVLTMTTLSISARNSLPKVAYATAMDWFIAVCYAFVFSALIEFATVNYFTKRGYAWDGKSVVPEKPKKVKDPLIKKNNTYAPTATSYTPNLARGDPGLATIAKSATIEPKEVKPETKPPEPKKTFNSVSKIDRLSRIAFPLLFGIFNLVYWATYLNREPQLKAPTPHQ
T1 sequence (P18507 whole entry): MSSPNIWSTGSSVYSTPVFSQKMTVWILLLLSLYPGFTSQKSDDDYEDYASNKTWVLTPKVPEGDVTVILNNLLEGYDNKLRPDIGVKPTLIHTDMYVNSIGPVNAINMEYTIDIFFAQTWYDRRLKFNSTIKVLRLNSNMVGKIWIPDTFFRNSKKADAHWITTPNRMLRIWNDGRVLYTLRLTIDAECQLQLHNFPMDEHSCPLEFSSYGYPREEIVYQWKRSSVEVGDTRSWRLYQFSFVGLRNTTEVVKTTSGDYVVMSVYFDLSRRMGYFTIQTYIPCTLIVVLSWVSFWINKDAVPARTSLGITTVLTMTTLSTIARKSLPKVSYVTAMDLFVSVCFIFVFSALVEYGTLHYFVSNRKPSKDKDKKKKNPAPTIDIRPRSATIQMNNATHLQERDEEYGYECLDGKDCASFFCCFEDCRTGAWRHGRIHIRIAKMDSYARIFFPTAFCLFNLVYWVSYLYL
T1 sequence (P47870 whole entry): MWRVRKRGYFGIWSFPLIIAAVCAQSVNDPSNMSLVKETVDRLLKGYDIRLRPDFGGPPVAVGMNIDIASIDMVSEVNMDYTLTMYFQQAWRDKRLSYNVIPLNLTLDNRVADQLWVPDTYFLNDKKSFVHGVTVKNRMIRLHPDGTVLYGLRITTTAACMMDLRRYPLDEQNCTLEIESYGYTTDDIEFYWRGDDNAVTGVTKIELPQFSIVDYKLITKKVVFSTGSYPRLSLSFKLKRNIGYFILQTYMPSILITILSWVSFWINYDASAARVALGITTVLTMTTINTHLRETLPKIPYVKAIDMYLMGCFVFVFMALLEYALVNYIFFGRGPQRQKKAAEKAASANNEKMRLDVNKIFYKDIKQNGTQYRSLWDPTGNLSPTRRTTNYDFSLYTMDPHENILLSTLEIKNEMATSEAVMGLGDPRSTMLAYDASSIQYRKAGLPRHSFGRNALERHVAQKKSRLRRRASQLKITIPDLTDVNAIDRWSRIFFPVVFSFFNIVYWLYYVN
Experiment: Agonist activity at human GABA-A alpha-1-beta-2-gamma-2 receptor expressed in Xenopus laevis

CCOC(=O)c1cncn1[C@@H](C)c1ccc(C2(C(F)(F)F)N=N2)cc1
EC50: 6.4 µM

CCOC(=O)c1cncn1[C@H](C)c1ccc(C2(C(F)(F)F)N=N2)cc1
EC50: 30 µM
